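Growth conditions: 96-well plates. Treatment: test compound, 48 hours, 5 concentrations. Analysis: linear interpolation between bracketing concentrations; unreached endpoints set to highest concentration. GI50: concentration for 50% inhibition of growth.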 Activity calls are given as the source filed them. Rule as the data show it: active = GI50 up to about 1.1 µM and inactive = higher.
What was measured:
Assay in all cases: inhibition of tumour cell growth, NCI panel, 48 h
786-0 = test system: 786-0
HT-29 = test system: HT-29
MCF7 = test system: MCF7
SK-MEL-5 = test system: SK-MEL-5
EKVX = test system: EKVX
OVCAR-3 = test system: OVCAR-3
MOLT-4 = test system: MOLT-4
RPMI-8226 = test system: RPMI-8226
K562 = test system: K562
PC-3 = test system: PC-3
RXF 393 = test system: RXF 393
CAKI-1 = test system: CAKI-1
NCI-H23 = test system: NCI-H23
SF-539 = test system: SF-539
TK-10 = test system: TK-10
HOP-92 = test system: HOP-92
Malme-3M = test system: Malme-3M
SNB-75 = test system: SNB-75
NCI-H226 = test system: NCI-H226
HL-60 = test system: HL-60

Measured: GI50

O=C(O)c1cc(Cl)cc(Cc2cc(Cl)cc(C(=O)O)c2O)c1O
inactive: 786-0 > 100 µM | HT-29 > 100 µM | MCF7 > 100 µM | SK-MEL-5 > 100 µM | EKVX > 100 µM | OVCAR-3 > 100 µM | MOLT-4 > 100 µM | RPMI-8226 > 100 µM | K562 > 100 µM | PC-3 > 100 µM | RXF 393 > 100 µM | CAKI-1 > 100 µM | NCI-H23 > 100 µM | SF-539 > 100 µM | TK-10 > 100 µM | HOP-92 > 100 µM | Malme-3M > 100 µM | SNB-75 > 100 µM

COc1cc(C(=O)N(Cc2cccnc2)C(=S)N(Cc2cccnc2)C(=O)c2cc(OC)c(OC)c(OC)c2)cc(OC)c1OC
inactive: 786-0 36.2 µM | HT-29 35.4 µM | MCF7 19.9 µM | SK-MEL-5 76.9 µM | EKVX > 100 µM | OVCAR-3 34.4 µM | MOLT-4 54.2 µM | RPMI-8226 56.6 µM | NCI-H226 > 100 µM | HL-60 37.2 µM | K562 52 µM | RXF 393 38.4 µM | CAKI-1 30.4 µM | NCI-H23 49.2 µM | SF-539 > 100 µM | TK-10 89.1 µM | HOP-92 15.1 µM | Malme-3M 89.7 µM | SNB-75 21.4 µM

C=C(C)[C@@H]1C[C@H]2O[C@](O)(C(=C)CC(=O)/C=C(/C)C[C@@H]3OC(=O)[C@]24O[C@@H]34)[C@H]1O
inactive: 786-0 > 100 µM | HT-29 > 100 µM | MCF7 > 100 µM | SK-MEL-5 > 100 µM | EKVX > 100 µM | MOLT-4 > 100 µM | RPMI-8226 > 100 µM | NCI-H226 > 100 µM | K562 > 100 µM | PC-3 > 100 µM | RXF 393 > 100 µM | CAKI-1 > 100 µM | NCI-H23 > 100 µM | SF-539 > 100 µM | TK-10 > 100 µM | Malme-3M > 100 µM | SNB-75 > 100 µM

C[n+]1cccc2ccc(OC(=O)c3ccccc3)cc21
inactive: 786-0 > 100 µM | HT-29 > 100 µM | MCF7 > 100 µM | SK-MEL-5 > 100 µM | EKVX > 100 µM | OVCAR-3 > 100 µM | MOLT-4 > 100 µM | RPMI-8226 > 100 µM | NCI-H226 > 100 µM | HL-60 > 10 µM | K562 > 100 µM | RXF 393 > 100 µM | CAKI-1 > 100 µM | NCI-H23 > 100 µM | SF-539 > 100 µM | TK-10 > 100 µM | HOP-92 > 100 µM | Malme-3M > 100 µM | SNB-75 > 100 µM

NC(=O)C(=O)n1ncc(Cl)c(Cl)c1=O
inactive: 786-0 22.2 µM | HT-29 27.5 µM | MCF7 57.3 µM | SK-MEL-5 18.3 µM | EKVX 39.2 µM | OVCAR-3 32.2 µM | MOLT-4 3.59 µM | RPMI-8226 11.7 µM | NCI-H226 > 69.5 µM | HL-60 5.26 µM | K562 9.46 µM | RXF 393 > 23.5 µM | CAKI-1 22.8 µM | NCI-H23 32.7 µM | SF-539 40.2 µM | TK-10 31.8 µM | HOP-92 > 42.3 µM | Malme-3M 17.5 µM | SNB-75 > 42.8 µM

COc1cc(/C=C2\C(=O)N(c3ccccc3)C(c3ccccc3)S2(=O)=O)cc(OC)c1OC (configuration not stated)
inactive: 786-0 69.5 µM | HT-29 19.5 µM | MCF7 31.2 µM | SK-MEL-5 17.6 µM | EKVX 24.2 µM | OVCAR-3 36 µM | MOLT-4 34 µM | RPMI-8226 17.2 µM | NCI-H226 46.8 µM | HL-60 7.36 µM | K562 27 µM | RXF 393 17.1 µM | CAKI-1 88.7 µM | NCI-H23 39.1 µM | SF-539 45.1 µM | TK-10 65 µM | HOP-92 33 µM | Malme-3M 53.1 µM

O=C1OC(C2Cc3cc4c(cc3C2=O)CCC4)c2ccccc21 (configuration not stated)
inactive: 786-0 80 µM | HT-29 30.6 µM | MCF7 41.5 µM | SK-MEL-5 21.3 µM | EKVX 49.5 µM | OVCAR-3 77.6 µM | MOLT-4 23.7 µM | RPMI-8226 35.3 µM | NCI-H226 20.6 µM | HL-60 42.9 µM | K562 33.6 µM | PC-3 30.3 µM | CAKI-1 > 100 µM | NCI-H23 47.1 µM | SF-539 27.9 µM | TK-10 > 100 µM | Malme-3M > 100 µM | SNB-75 51.4 µM

CCC(C)N1CN(c2ccccc2)C2(CCN(CC3COc4ccccc4O3)CC2)C1=O (configuration not stated)
inactive: 786-0 18 µM | HT-29 13.1 µM | MCF7 18.9 µM | SK-MEL-5 14.7 µM | EKVX 14.9 µM | OVCAR-3 15.7 µM | MOLT-4 16.1 µM | RPMI-8226 13.3 µM | NCI-H226 21 µM | HL-60 14.4 µM | K562 16.5 µM | PC-3 26.6 µM | RXF 393 20.9 µM | CAKI-1 16.9 µM | NCI-H23 22.9 µM | SF-539 17.8 µM | TK-10 27.5 µM | Malme-3M 18.5 µM | SNB-75 36.9 µM

CC(=O)Nc1ccc2c(C)c3c(nc2n1)[nH]c1ccccc13
inactive: 786-0 35.4 µM | HT-29 27.9 µM | MCF7 19.2 µM | SK-MEL-5 14.9 µM | EKVX 23.1 µM | OVCAR-3 23.9 µM | MOLT-4 19.7 µM | RPMI-8226 27.2 µM | NCI-H226 23.4 µM | K562 35.5 µM | PC-3 27.2 µM | RXF 393 33.6 µM | CAKI-1 24 µM | NCI-H23 25.2 µM | SF-539 57.3 µM | TK-10 55.5 µM | HOP-92 20.4 µM | SNB-75 22.1 µM

CC1(C)OC[C@@H]([C@H](C=O)OCc2ccccc2)O1
inactive: 786-0 > 100 µM | HT-29 > 100 µM | MCF7 > 100 µM | SK-MEL-5 > 100 µM | EKVX > 100 µM | OVCAR-3 > 100 µM | MOLT-4 > 100 µM | RPMI-8226 > 100 µM | NCI-H226 > 100 µM | K562 > 100 µM | PC-3 > 100 µM | NCI-H23 > 100 µM | TK-10 > 100 µM | HOP-92 > 100 µM | Malme-3M > 100 µM | SNB-75 > 100 µM

CN(CC#N)C(=O)Cc1ccc([N+](=O)[O-])cc1
inactive: 786-0 > 10 µM | HT-29 > 10 µM | MCF7 > 10 µM | SK-MEL-5 > 10 µM | EKVX > 10 µM | OVCAR-3 > 10 µM | MOLT-4 > 10 µM | RPMI-8226 > 10 µM | NCI-H226 > 10 µM | HL-60 > 10 µM | K562 > 10 µM | PC-3 > 10 µM | RXF 393 > 10 µM | CAKI-1 > 10 µM | NCI-H23 > 10 µM | SF-539 > 10 µM | TK-10 > 10 µM | Malme-3M > 10 µM

Cc1ccc2c(=O)c(C(=O)N(CCO)CCO)c[nH]c2n1
inactive: 786-0 > 100 µM | HT-29 > 100 µM | MCF7 > 100 µM | SK-MEL-5 > 100 µM | EKVX > 100 µM | OVCAR-3 > 100 µM | MOLT-4 > 100 µM | RPMI-8226 > 100 µM | NCI-H226 > 100 µM | HL-60 > 100 µM | K562 > 100 µM | PC-3 > 100 µM | RXF 393 > 100 µM | CAKI-1 > 100 µM | NCI-H23 > 100 µM | TK-10 > 100 µM | Malme-3M > 100 µM

Nc1ncnc2c1ncn2C1OC(COP(=O)(O)CP(=O)(O)O)C(O)C1O (configuration not stated)
inactive: 786-0 > 100 µM | HT-29 > 100 µM | MCF7 > 100 µM | SK-MEL-5 > 100 µM | EKVX > 100 µM | MOLT-4 > 100 µM | RPMI-8226 > 100 µM | NCI-H226 > 100 µM | HL-60 > 100 µM | K562 > 100 µM | PC-3 > 100 µM | RXF 393 > 100 µM | CAKI-1 > 100 µM | NCI-H23 > 100 µM | SF-539 > 100 µM | TK-10 > 100 µM | Malme-3M > 100 µM | SNB-75 > 100 µM

C[N+](C)(CCCn1ccnc1[N+](=O)[O-])CCCn1ccnc1[N+](=O)[O-]
inactive: 786-0 > 100 µM | HT-29 > 100 µM | MCF7 > 100 µM | SK-MEL-5 > 100 µM | EKVX > 100 µM | OVCAR-3 > 100 µM | MOLT-4 > 100 µM | RPMI-8226 > 100 µM | NCI-H226 > 100 µM | HL-60 > 100 µM | K562 > 100 µM | PC-3 > 100 µM | RXF 393 > 100 µM | CAKI-1 > 100 µM | NCI-H23 > 100 µM | SF-539 > 100 µM | TK-10 > 100 µM | Malme-3M > 100 µM | SNB-75 > 100 µM

O=C1OC(c2ccc(O)c(Cl)c2)(c2ccc(O)c(Cl)c2)c2ccc(Br)c3cccc1c23.O=C1OC(c2ccc(O)c(Cl)c2)(c2ccc(O)c(Cl)c2)c2cccc3c(Br)ccc1c23
inactive: 786-0 19 µM | HT-29 11.5 µM | MCF7 15.2 µM | SK-MEL-5 17.5 µM | EKVX 14 µM | OVCAR-3 5.82 µM | MOLT-4 16.3 µM | RPMI-8226 16.9 µM | NCI-H226 17.7 µM | K562 22.7 µM | PC-3 14.3 µM | RXF 393 17.3 µM | CAKI-1 14.1 µM | NCI-H23 16.7 µM | SF-539 18.2 µM | TK-10 17.1 µM | HOP-92 9.53 µM | Malme-3M 18.9 µM | SNB-75 22.5 µM
